The subject of the assay is H37Rv strain of M. tuberculosis. The experiment in a line: Alamar Blue Susceptibility Test (MABA). The class given is cell-based. To be noted: H37Rv strain of M. tuberculosis, Alamar Blue; for MIC: Mycobacterium tuberculosis, read-out: MABA (TB growth inhibition, colourimetric assay).

≈ marks a conversion by molar mass, not a printed value. Counter-ions that a name gives are not always drawn.

For the compound `O=C(c1ccccc1)N1CCN(c2nc(NCc3ccccc3)c3ccccc3n2)CC1` [Compound 58, 1-(4-(4-(Benzylamino)quinazolin-2-yl)piperazin-1-yl)(phenyl)methanone], the MIC lay in the range of 10 to 50 µM (≈ 4.24 to 21.2 µg/mL).

`c1ccc2c(NC34CC5CC(CC(C5)C3)C4)nc(N3CCOCC3)nc2c1` [Compound 61, N-(1′-Adamantyl)-2-(morpholino)quinazolin-4-amine]: the “MABA (TB growth inhibition, colourimetric assay)” value was “+++ (10-50 μM=+++)”.

As to `CCCNc1nc(NCc2ccccc2)c2ccccc2n1` [Compound 67, N^4-Benzyl-N^2-propylquinazoline-2,4-diamine], the MIC lay within 10 to 50 µM (≈ 2.92 to 14.6 µg/mL).

Regarding `COc1cc2nc(N3CCCCC3)nc(NCc3ccccc3)c2cc1OC` [Compound 70, N-Benzyl-6,7-dimethoxy-2-(piperidin-1-yl)quinazolin-4-amine], the MIC was 10 to 50 µM (≈ 3.78 to 18.9 µg/mL).

For `Clc1ccc2nc(N3CCCCC3)nc(NCc3ccccc3)c2c1` [Compound 71, N-Benzyl-6-chloro-2-(piperidin-1-yl)quinazolin-4-amine], the MIC lay in the range of 10 to 50 µM (≈ 3.53 to 17.6 µg/mL).

As to `c1ccc(Nc2nc(N3CCCCC3)nc3ccccc23)cc1` [Compound 72, N-Phenyl-2-(piperidin-1-yl)quinazolin-4-amine hydrochloride], the MIC was in the range of 50 to 128 µM.

For `O=C(Nc1nc(NCc2ccccc2)c2ccccc2n1)c1ccccc1` [Compound 73, N-(4-(Benzylamino)quinazolin-2-yl)benzamide], the MIC is 50 to 128 µM (≈ 17.7 to 45.4 µg/mL).

With `Clc1ccc(CNc2nc(N3CCOCC3)nc3ccccc23)cc1` [Compound 74, N-(4-Chlorobenzyl)-2-morpholinoquinazolin-4-amine], the MIC fell in the range of 10 to 50 µM (≈ 3.55 to 17.7 µg/mL).

For the compound `Clc1ccc(CNc2nc(N3CCCC3)nc3ccccc23)cc1` [Compound 75, N-(4-Chlorobenzyl)-2-(pyrrolidin-1-yl)quinazolin-4-amine], the MIC was in the range of 10 to 50 µM (≈ 3.39 to 16.9 µg/mL).

For the compound `FC(F)(F)c1ccc(CNc2nc(N3CCOCC3)nc3ccccc23)cc1` [Compound 77, 2-Morpholino-N-(4-(trifluoromethyl)benzyl)quinazolin-4-amine], the MIC lay within 10 to 50 µM (≈ 3.88 to 19.4 µg/mL).

In the case of `COc1ccccc1CNc1nc(N2CCCCC2)nc2ccccc12` [Compound 81, N-(2-Methoxybenzyl)-2-(piperidin-1-yl)quinazolin-4-amine hydrochloride], the MIC lay within 10 to 50 µM.

Turning to `COc1cccc(CNc2nc(N3CCCCC3)nc3ccccc23)c1` [Compound 82, N-(3-Methoxybenzyl)-2-(piperidin-1-yl)quinazolin-4-amine hydrochloride], the MIC was in the range of 10 to 50 µM.

On to `c1ccc2c(c1)CN(c1nc(N3CCCCC3)nc3ccccc13)C2` [Compound 85, 4-(Isoindolin-2-yl)-2-(piperidin-1-yl)quinazoline hydrochloride], for which the MIC fell in the range of 10 to 50 µM.

Turning to `c1ccc2c(c1)CC(Nc1nc(N3CCCCC3)nc3ccccc13)C2` [Compound 86, N-(2,3-Dihydro-1H-inden-2-yl)-2-(piperidin-1-yl)quinazolin-4-amine hydrochloride], the MIC is 10 to 50 µM.

For the compound `Cc1ccc(CCNc2nc(N3CCCCC3)nc3ccccc23)cc1` [Compound 87, N-(4-Methylphenethyl)-2-(piperidin-1-yl)quinazolin-4-amine hydrochloride], the MIC lay within 10 to 50 µM.

In the case of `c1ccc(N2CCN(c3nc(N4CCCCC4)nc4ccccc34)CC2)cc1` [Compound 88, 4-(4-Phenylpiperazin-1-yl)-2-(piperidin-1-yl)quinazoline], the MIC was 50 to 128 µM (≈ 18.7 to 47.8 µg/mL).

`Clc1ccc(N2CCN(c3nc(N4CCCCC4)nc4ccccc34)CC2)cc1` [Compound 89, 4-(4-(4-Chlorophenyl)piperazin-1-yl)-2-(piperidin-1-yl)quinazoline]: the MIC lay in the range of 10 to 50 µM (≈ 4.08 to 20.4 µg/mL).

On to `c1ccc(C2CCN(c3nc(N4CCCCC4)nc4ccccc34)CC2)cc1` [Compound 90, 4-(4-Phenylpiperidin-1-yl)-2-(piperidin-1-yl)quinazoline], for which the MIC was 10 to 50 µM (≈ 3.73 to 18.6 µg/mL).

Turning to `CC(C)(Nc1nc(N2CCCC2)nc2ccccc12)c1ccccc1` [Compound 91, N-(2-Phenylpropan-2-yl)-2-(pyrrolidin-1-yl)quinazolin-4-amine], the MIC lay within 10 to 50 µM (≈ 3.32 to 16.6 µg/mL).

As for `CS(=O)(=O)c1ccc(CNc2nc(N3CCCCC3)nc3ccccc23)cc1` [Compound 94, N-(4-(Methylsulfonyl)benzyl)-2-(piperidin-1-yl)quinazolin-4-amine], the MIC was 10 to 50 µM (≈ 3.97 to 19.8 µg/mL).

With `c1ccc(CCCNc2nc(N3CCCCC3)nc3ccccc23)cc1` [Compound 95, N-(3-Phenylpropyl)-2-(piperidin-1-yl)quinazolin-4-amine], the MIC is below 10 µM.

Take `COc1ccc([C@@H](C)Nc2nc(N3CCCCC3)nc3ccccc23)cc1` [Compound 97, (R)—N-(1-(4-Methoxyphenyl)ethyl)-2-(piperidin-1-yl)quinazolin-4-amine]: the MIC is 10 to 50 µM (≈ 3.62 to 18.1 µg/mL).

With `Cc1ccc([C@@H](C)Nc2nc(N3CCCCC3)nc3ccccc23)cc1` [Compound 101, (R)-2-(Piperidin-1-yl)-N-(1-p-tolylethyl)quinazolin-4-amine], the MIC was in the range of 10 to 50 µM (≈ 3.46 to 17.3 µg/mL).

Consider `Cc1ccc(C(C)(C)Nc2nc(N3CCCCC3)nc3ccccc23)cc1` [Compound 102, 2-(Piperidin-1-yl)-N-(2-p-tolylpropan-2-yl)quinazolin-4-amine], for which the MIC fell in the range of 10 to 50 µM (≈ 3.61 to 18 µg/mL).

Regarding `Cc1ccc(C(C)(C)Nc2nc(N3CCCC3)nc3ccccc23)cc1` [Compound 103, 2-(Pyrrolidin-1-yl)-N-(2-p-tolylpropan-2-yl)quinazolin-4-amine], the MIC is 10 to 50 µM (≈ 3.46 to 17.3 µg/mL).

Consider `Cc1ccccc1CNc1nc(N2CCCCC2)nc2ccccc12` [Compound 104, N-(2-Methylbenzyl)-2-(piperidin-1-yl)quinazolin-4-amine hydrochloride], for which the MIC lay within 10 to 50 µM.

With `Clc1cccc2nc(N3CCCCC3)nc(NCc3ccccc3)c12` [Compound 107, N-Benzyl-5-chloro-2-(piperidin-1-yl)quinazolin-4-amine], the MIC lay in the range of 10 to 50 µM (≈ 3.53 to 17.6 µg/mL).

In the case of `CC(C)(Cc1ccc(F)cc1)Nc1nc(N2CCCCC2)nc2ccccc12` [Compound 108, N-(1-(4-Fluorophenyl)-2-methylpropan-2-yl)-2-(piperidin-1-yl)quinazolin-4-amine], the MIC is 10 to 50 µM (≈ 3.78 to 18.9 µg/mL).

On to `FC(F)(F)c1ccc(CNc2nc(N3CCCCC3)c3ccccc3n2)cc1` [Compound 109, 4-(Piperidin-1-yl)-N-(4-(trifluoromethyl)benzyl)quinazolin-2-amine hydrochloride], for which the MIC was in the range of 10 to 50 µM.

For the compound `Clc1ccc(CNc2nc(N3CCCCC3)c3ccccc3n2)cc1` [Compound 110, N-(4-Chlorobenzyl)-4-(piperidin-1-yl)quinazolin-2-amine hydrochloride], the MIC was in the range of 10 to 50 µM.

For `Fc1ccc(CNc2nc(N3CCCCC3)c3ccccc3n2)cc1` [Compound 111, N-(4-Fluorobenzyl)-4-(piperidin-1-yl)quinazolin-2-amine hydrochloride], the MIC is 10 to 50 µM.

Consider `c1ccc2c(c1)CCN(c1nc(N3CCCCC3)c3ccccc3n1)C2` [Compound 113, 2-(3,4-Dihydroisoquinolin-2(1H)-yl)-4-(piperidin-1-yl)quinazoline hydrochloride], for which the MIC is 10 to 50 µM.

Regarding `Fc1ccc(CNc2nc(Nc3ccc(F)cc3)nc3ccccc23)cc1` [Compound 118, N^4-(4-Fluorobenzyl)-N^2-(4-fluorophenyl)quinazoline-2,4-diamine hydrochloride], the MIC was 10 to 50 µM.

As for `Fc1ccc(CNc2nc(NCc3ccc(F)cc3)c3ccccc3n2)cc1` [Compound 119, N^2,N^4-bis(4-Fluorobenzyl)quinazoline-2,4-diamine hydrochloride], the MIC was 10 to 50 µM.

As for `CC(C)(Nc1nc(N2CCCC2)nc2ccccc12)c1ccc(F)cc1` [Compound 121, N-(2-(4-Fluorophenyl)propan-2-yl)-2-(pyrrolidin-1-yl)quinazolin-4-amine], the MIC was in the range of 10 to 50 µM (≈ 3.5 to 17.5 µg/mL).

Regarding `c1ccc(C2(Nc3nc(N4CCCCC4)nc4ccccc34)CC2)cc1` [Compound 122, N-(1-Phenylcyclopropyl)-2-(piperidin-1-yl)quinazolin-4-amine], the MIC lay within 10 to 50 µM (≈ 3.44 to 17.2 µg/mL).

`c1ccc(C2(Nc3nc(N4CCCC4)nc4ccccc34)CC2)cc1` [Compound 123, N-(1-Phenylcyclopropyl)-2-(pyrrolidin-1-yl)quinazolin-4-amine]: the MIC lay in the range of 10 to 50 µM (≈ 3.3 to 16.5 µg/mL).

As for `c1ccc(C2(Nc3nc(N4CCCC4)nc4ccccc34)CCCCC2)cc1` [Compound 125, N-(1-Phenylcyclohexyl)-2-(pyrrolidin-1-yl)quinazolin-4-amine], the MIC fell in the range of 50 to 128 µM (≈ 18.6 to 47.7 µg/mL).

For the compound `Fc1ccc(CNc2nc(NCc3ccccc3)c3ccccc3n2)cc1` [Compound 126, N^4-Benzyl-N^2-(4-fluorobenzyl)quinazoline-2,4-diamine hydrochloride], the MIC lay within 10 to 50 µM.

On to `COc1ccc(CNc2nc(NCc3ccccc3)c3ccccc3n2)cc1` [Compound 129, N^4-Benzyl-N^2-(4-methoxybenzyl)quinazoline-2,4-diamine hydrochloride], for which the MIC was 10 to 50 µM.

With `Fc1ccc(CNc2nc(N3CCC(F)(F)CC3)nc3ccccc23)cc1` [Compound 137, 2-(4,4-Difluoropiperidin-1-yl)-N-(4-fluorobenzyl)quinazolin-4-amine], the MIC lay in the range of 10 to 50 µM (≈ 3.72 to 18.6 µg/mL).

As for `CCC(CC)(Nc1nc(N2CCCCC2)nc2ccccc12)c1ccccc1` [Compound 138, N-(3-Phenylpentan-3-yl)-2-(piperidin-1-yl)quinazolin-4-amine], the MIC was below 10 µM.

With `O=C1CCN(c2nc(NCc3ccccc3)c3ccccc3n2)CC1` [Compound 139, 1-(4-(Benzylamino)quinazolin-2-yl)piperidin-4-one], the MIC is below 10 µM.

For `c1ccc(CNc2nc(N3CCSCC3)nc3ccccc23)cc1` [Compound 140, N-Benzyl-2-thiomorpholinoquinazolin-4-amine hydrochloride], the MIC was below 10 µM.

Turning to `Clc1ccc(C2(Nc3nc(N4CCCCC4)nc4ccccc34)CC2)cc1` [Compound 141, N-(1-(4-Chlorophenyl)cyclopropyl)-2-(piperidin-1-yl)quinazolin-4-amine hydrochloride], the MIC was 10 to 50 µM.

As to `Clc1ccc(C2(Nc3nc(N4CCCC4)nc4ccccc34)CC2)cc1` [Compound 142, N-(1-(4-Chlorophenyl)cyclopropyl)-2-(pyrrolidin-1-yl)quinazolin-4-amine hydrochloride], the MIC lay within 10 to 50 µM.

For the origin of these results see US20100317607A1, “USE OF COMPOUNDS FOR PREPARING ANTI-TUBERCULOSIS AGENTS” (INFECTIOUS DISEASE RESEARCH INSTITUTE, priority 2007, published 2010).
